Experimental data taken from patent publication US20170320870A1 (Medical Research Council Technology, priority 2009, published 2017).

Biological target: T1, LRRK2 wild type (recombinant human, catalytic domain amino acids 970-2527, GST-tagged) (Homo sapiens, UniProt Q5S007)
T1 construct: The wild type used was recombinant human, catalytic domain (amino acids 970-2527) GST-tagged, expressed in insect cells; GST; purchased Invitrogen Corporation PV4873; host or cells: insect cells
Test: LRRK2 wild type protein kinase assay ([γ-33P] ATP, peptide substrate […]), IC50
Type: biochemical
Conditions: LRRK2 (variant not given); read-out: Potency score, LRRK2 IC50
Procedure, shortened: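 Insect-cell-expressed enzyme (~5 nM), no activation, incubated 180 min at ~21 °C in 50 mM Tris-HCl pH 7.5, 0.1 mM EGTA, 1 mM DTT, 10 mM MgCl2 with 100 μM peptide substrate and [γ-33P]ATP. Reaction stopped with orthophosphoric acid, captured on P81 filters and counted; IC50 from 10 concentrations in duplicate.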

T1 sequence (Q5S007 970-2527): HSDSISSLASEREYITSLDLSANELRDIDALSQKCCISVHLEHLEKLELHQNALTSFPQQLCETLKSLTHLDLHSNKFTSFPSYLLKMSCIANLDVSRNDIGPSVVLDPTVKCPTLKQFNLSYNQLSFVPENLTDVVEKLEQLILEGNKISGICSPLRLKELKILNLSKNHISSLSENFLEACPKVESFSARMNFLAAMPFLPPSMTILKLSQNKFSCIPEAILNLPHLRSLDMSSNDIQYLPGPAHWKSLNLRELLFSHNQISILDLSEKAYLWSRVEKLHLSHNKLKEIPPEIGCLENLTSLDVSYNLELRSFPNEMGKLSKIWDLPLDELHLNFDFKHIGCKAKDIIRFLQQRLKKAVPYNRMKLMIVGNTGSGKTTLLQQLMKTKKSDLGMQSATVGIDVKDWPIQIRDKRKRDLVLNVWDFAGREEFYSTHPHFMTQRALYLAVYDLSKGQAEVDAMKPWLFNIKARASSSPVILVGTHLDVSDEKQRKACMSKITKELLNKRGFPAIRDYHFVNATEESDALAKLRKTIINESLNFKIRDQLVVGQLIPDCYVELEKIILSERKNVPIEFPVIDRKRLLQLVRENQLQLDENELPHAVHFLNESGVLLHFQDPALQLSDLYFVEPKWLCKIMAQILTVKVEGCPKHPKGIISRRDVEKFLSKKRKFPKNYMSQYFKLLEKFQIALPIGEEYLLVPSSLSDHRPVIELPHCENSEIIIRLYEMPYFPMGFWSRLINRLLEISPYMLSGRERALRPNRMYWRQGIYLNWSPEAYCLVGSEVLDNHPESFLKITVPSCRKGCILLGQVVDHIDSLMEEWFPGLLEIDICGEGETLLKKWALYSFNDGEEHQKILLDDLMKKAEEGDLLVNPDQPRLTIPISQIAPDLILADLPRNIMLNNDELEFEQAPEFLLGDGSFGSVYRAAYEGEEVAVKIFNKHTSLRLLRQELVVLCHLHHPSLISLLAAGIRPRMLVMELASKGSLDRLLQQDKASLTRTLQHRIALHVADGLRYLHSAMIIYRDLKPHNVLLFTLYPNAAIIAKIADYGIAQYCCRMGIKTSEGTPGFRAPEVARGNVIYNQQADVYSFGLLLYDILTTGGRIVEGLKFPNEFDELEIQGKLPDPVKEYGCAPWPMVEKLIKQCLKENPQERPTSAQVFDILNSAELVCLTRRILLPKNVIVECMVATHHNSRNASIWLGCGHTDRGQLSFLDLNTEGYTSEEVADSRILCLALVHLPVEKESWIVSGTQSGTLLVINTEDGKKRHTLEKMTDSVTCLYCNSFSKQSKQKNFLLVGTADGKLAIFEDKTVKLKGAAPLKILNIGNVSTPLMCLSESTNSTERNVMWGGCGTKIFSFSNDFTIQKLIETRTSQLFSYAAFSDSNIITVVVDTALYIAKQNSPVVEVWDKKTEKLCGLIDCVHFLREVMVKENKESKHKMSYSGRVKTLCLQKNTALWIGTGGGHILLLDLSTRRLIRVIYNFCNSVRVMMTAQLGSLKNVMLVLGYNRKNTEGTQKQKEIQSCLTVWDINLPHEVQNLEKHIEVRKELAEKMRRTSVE

| IC50 | SMILES |
| --- | --- |
| 0.1 to 1 µM | Cc1n[nH]c2ccnc(OCC3CC3)c12 [Example 123, 4-Cyclopropyl-methoxy-3-methyl-1H-pyrazolo [4,3-c]pyridine] |
| 0.1 to 1 µM | CCOc1nccc2[nH]nc(C)c12 [Example 124, 4-Ethoxy-3-methyl-1H-pyrazolo[4,3-c]pyridine] |
| 1 to 10 µM | Cc1n[nH]c2ccnc(Cc3ccccc3)c12 [Example 125, 4-Benzyl-3-methyl-1H-pyrazolo[4,3-c]pyridine] |
| 1 to 10 µM | Cc1n[nH]c2ccnc(CC3CCCCC3)c12 [Example 126, 4-Cyclohexylmethyl-3-methyl-1H-pyrazolo[4,3-c]pyridine] |
| 0.1 to 1 µM | Cc1n[nH]c2ccnc(C3CCCC3)c12 [Example 127, 4-Cyclopentyl-3-methyl-1H-pyrazolo[4,3-c]pyridine] |
| 1 to 10 µM | Cc1n[nH]c2ccnc(CCC(C)C)c12 [Example 128, 3-Methyl-4-(3-methyl-butyl)-1H-pyrazolo[4,3-c]pyridine] |
| 1 to 10 µM | Cc1n[nH]c2ccnc(-c3ncco3)c12 [Example 129, 3-Methyl-4-oxazol-2-yl-1H-pyrazolo[4,3-c]pyridine] |
| 0.1 to 1 µM | Cc1n[nH]c2ccnc(-c3nccs3)c12 [Example 130, 3-Methyl-4-thiazol-2-yl-1H-pyrazolo[4,3-c]pyridine] |
| 1 to 10 µM | Cc1n[nH]c2ccnc(-c3cnccn3)c12 [Example 131, 3-Methyl-4-pyrazin-2-yl-1H-pyrazolo[4,3-cc]pyridine] |
| 0.1 to 1 µM | Fc1cccc(Nc2nccc3[nH]ncc23)c1 [Example 132, (3-Fluoro-phenyl)-(1H-pyrazolo[4,3-c]pyridin-4-yl)-amine] |
| 1 to 10 µM | c1cc2[nH]ncc2c(NC2CCCCC2)n1 [Example 133, Cyclohexyl-(1H-pyrazolo[4,3-c]pyridin-4-yl)-amine] |
| < 0.1 µM | Brc1n[nH]c2ccnc(NC3CCCCC3)c12 [Example 134, (3-Bromo-1H-pyrazolo[4,3-c]pyridin-4-yl)-cyclohexyl-amine] |
| 0.1 to 1 µM | c1cncc(-c2n[nH]c3ccnc(NC4CCCCC4)c23)c1 [Example 135, Cyclohexyl-(3-pyridin-3-yl-1H-pyrazolo[4,3-c]pyridin-4-yl)-amine] |
| 0.1 to 1 µM | c1ccc(-c2n[nH]c3ccnc(NC4CCCCC4)c23)cc1 [Example 136, Cyclohexyl-(3-phenyl-1H-pyrazolo[4,3-c]pyridin-4-yl)-amine] |
| 1 to 10 µM | CC(=O)Nc1cccc(-c2n[nH]c3ccnc(NC4CCCCC4)c23)c1 [Example 137, N-[3-(4-Cyclohexylamino-1H-pyrazolo[4,3-c]pyridin-3-yl)-phenyl]-acetamide] |
| 0.1 to 1 µM | c1cc2[nH]nc(C3CC3)c2c(NC2CCCCC2)n1 [Example 138, Cyclohexyl-(3-cyclopropyl-1H-pyrazolo[4,3-c]pyridin-4-yl)-amine] |
| 1 to 10 µM | CNC(=O)c1ccc(-c2n[nH]c3ccnc(NC4CCCCC4)c23)cc1 [Example 139, 4-(4-Cyclohexylamino-1H-pyrazolo[4,3-c]pyridin-3-yl)-N-methyl-benzamide] |
| 0.1 to 1 µM | COc1ccc(-c2n[nH]c3ccnc(NC4CCCCC4)c23)cc1Cl [Example 140, [3-(3-Chloro-4-methoxy-phenyl)-1H-pyrazolo[4,3-c]pyridin-4-yl]-cyclohexyl-amine] |
| 0.1 to 1 µM | COc1ccc(-c2n[nH]c3ccnc(NC4CCCCC4)c23)cc1 [Example 141, Cyclohexyl-[3-(4-methoxy-phenyl)-1H-pyrazolo[4,3-c]pyridin-4-yl]-amine] |

| IC50 | SMILES |
| --- | --- |
| 1 to 10 µM | COc1ccc(-c2n[nH]c3ccnc(NC4CCCCC4)c23)cn1 [Example 142, Cyclohexyl-[3-(6-methoxy-pyridin-3-yl)-1H-pyrazolo[4,3-c]pyridin-4-yl]-amine] |
| 0.1 to 1 µM | Clc1ccccc1-c1n[nH]c2ccnc(NC3CCCCC3)c12 [Example 143, [3-(2-Chloro-phenyl)-1H-pyrazolo[4,3-c]pyridin-4-yl]-cyclohexyl-amine] |
| 0.1 to 1 µM | Clc1cccc(-c2n[nH]c3ccnc(NC4CCCCC4)c23)c1 [Example 144, [3-(3-Chloro-phenyl)-1H-pyrazolo[4,3-c]pyridin-4-yl]-cyclohexyl-amine] |
| 0.1 to 1 µM | Clc1ccc(-c2n[nH]c3ccnc(NC4CCCCC4)c23)cc1 [Example 145, [3-(4-Chloro-phenyl)-1H-pyrazolo[4,3-c]pyridin-4-yl]-cyclohexyl-amine] |
| 0.1 to 1 µM | COc1cccc(-c2n[nH]c3ccnc(NC4CCCCC4)c23)c1 [Example 146, Cyclohexyl-[3-(3-methoxy-phenyl)-1H-pyrazolo[4,3-c]pyridin-4-yl]-amine] |
| 0.1 to 1 µM | c1cc2[nH]nc(-c3ccoc3)c2c(NC2CCCCC2)n1 [Example 147] |
| 0.1 to 1 µM | Cc1ccc(-c2n[nH]c3ccnc(NC4CCCCC4)c23)cc1 [Example 148, Cyclohexyl-(3-p-tolyl-1H-pyrazolo[4,3-c]pyridin-4-yl)-amine] |
| 0.1 to 1 µM | Cc1cccc(-c2n[nH]c3ccnc(NC4CCCCC4)c23)c1 [Example 149, Cyclohexyl-(3-m-tolyl-1H-pyrazolo[4,3-c]pyridin-4-yl)-amine] |
| 0.1 to 1 µM | N#Cc1cccc(-c2n[nH]c3ccnc(NC4CCCCC4)c23)c1 [Example 150, 3-(4-Cyclohexylamino-1H-pyrazolo[4,3-c]pyridin-3-yl)-benzonitrile] |
| 1 to 10 µM | FC(F)(F)Oc1ccccc1-c1n[nH]c2ccnc(NC3CCCCC3)c12 [Example 151, Cyclohexyl-[3-(2-trifluoromethoxy-phenyl)-1H-pyrazolo[4,3-c]pyridin-4-yl]-amine] |
| 0.1 to 1 µM | c1cc2[nH]nc(-c3ccc(N4CCOCC4)cc3)c2c(NC2CCCCC2)n1 [Example 152, Cyclohexyl-[3-(4-morpholin-4-yl-phenyl)-1H-pyrazolo[4,3-c]pyridin-4-yl]-amine] |
| 1 to 10 µM | O=C(c1cccc(-c2n[nH]c3ccnc(NC4CCCCC4)c23)c1)N1CCOCC1 [Example 153, [3-(4-Cyclohexylamino-1H-pyrazolo[4,3-c]pyridin-3-yl)-phenyl]-morpholin-4-yl-methanone] |
| 0.1 to 1 µM | c1cc2[nH]nc(-c3ccc(N4CCOCC4)nc3)c2c(NC2CCCCC2)n1 [Example 154, Cyclohexyl-[3-(6-morpholin-4-yl-pyridin-3-yl)-1H-pyrazolo[4,3-c]pyridin-4-yl]-amine] |
| 0.1 to 1 µM | c1cc(-c2n[nH]c3ccnc(NC4CCCCC4)c23)cc(-n2cccn2)c1 [Example 155] |
| 0.1 to 1 µM | N#CCc1ccc(-c2n[nH]c3ccnc(NC4CCCCC4)c23)cc1 [Example 156, [4-(4-Cyclohexylamino-1H-pyrazolo[4,3-c]pyridin-3-yl)-phenyl]-acetonitrile] |
| 1 to 10 µM | FC(F)(F)c1ccc(-c2n[nH]c3ccnc(NC4CCCCC4)c23)cc1 [Example 157] |
| 1 to 10 µM | N#Cc1ccc(-c2n[nH]c3ccnc(NC4CCCCC4)c23)cc1 [Example 158] |
| 1 to 10 µM | Fc1cccc(-c2n[nH]c3ccnc(NC4CCCCC4)c23)c1F [Example 159] |
| 0.1 to 1 µM | c1cc2[nH]nc(-c3cnc(N4CCOCC4)nc3)c2c(NC2CCCCC2)n1 [Example 160, Cyclohexyl-[3-(2-morpholin-4-yl-pyrimidin-5-yl)-1H-pyrazolo[4,3-c]pyridin-4-yl]-amine] |

| SMILES | IC50 |
| --- | --- |
| CC[C@@H](C)Oc1nccc2[nH]nc(C)c12 [Example 122, 4-((R)-sec-Butoxy)-3-methyl-1H-pyrazolo[4,3-c] pyridine] | < 0.1 µM |
